{"source": "patent US5800838A", "about": "“Composition that inhibits or destroys at least one unicellular living organism containing fluorine F- and Lithium li+” (priority 1987, dated 1998)", "key": {"Trichomonas vaginalis": {"tested_on": "Trichomonas vaginalis", "experiment": "Number of strains inhibited / MIC, same methodology as example 4", "type": "cell-based", "settings": "for MIC: Trichomonas vaginalis", "procedure": "(§1) In the first trial, the sample of bactericidal substance was incorporated directly in the specific culture edium of the microorganism. A concentration series of the bactericidal substance was prepared in the geometric ratio of 2, from 400 μg/ml to 1.56 μg/ml. The cell concentration used in the seeding of the Petri dishes was […]. A 24-hour incubation was performed at 37° C. and then, for each wild-type strain tested, the concentration of primary principle destroying all the microorganisms (see method of Professor F. CATALAN et al., Institut A. FOURNIER, PARIS) was determined. The trail was performed on 32 wild-type strains of Gardnerella vaginalis originating from hospital sources and with benzalkonium chloride and then nonoxinol 9 as active principles, and with sodium fluoride NaF at a concentration of 1 mg/l and then lithium fluoride LiF at a concentration of 1 mg/l as activating principles.\nThe same methodology as in example 4 was used on 15 strains of Trichomonas vaginalis."}, "Candida albicans": {"tested_on": "Candida albicans", "experiment": "MIC on hospital strains of Candida albicans", "type": "cell-based", "settings": "read-out: MIC of the primary active principle", "procedure": "(§2) The methodology employed is that described by Professor F. CATALAN, P. SEDNAOUI, A. MILOVANOVIC et al., Institut A. FOURNIER, PARIS.\nWith the same methodology, trials were performed on hospital strains of Candida albicans: […]"}, "Gardnerella vaginalis [1]": {"tested_on": "Gardnerella vaginalis", "experiment": "Number of strains inhibited, bactericidal substance incorporated in culture medium (first trial)", "type": "cell-based", "settings": "for MBC: Gardnerella vaginalis, 24 h, read-out: totally lethal concentration; for number of strains inhibited out of the 32 tested: NaF or LiF 1 mg/l where added", "procedure": "as §1"}, "spermatozoa [2]": {"tested_on": "spermatozoa", "settings": "in the initial 1 millilitre, cited from earlier work"}, "[3]": {"tested_on": "Streptococcus faecalis CNCM 5 855", "settings": "cited from earlier work"}, "MAC COY cells": {"tested_on": "MAC COY cells", "settings": "mouse"}, "spermatozoa [4]": {"tested_on": "spermatozoa", "experiment": "SANDERS-CRAMER total spermicidal test according to IPPF standards", "type": "cell-based", "settings": "with 1 ml solution containing 0.0001% lithium fluoride; in the initial 1 millilitre"}, "[5]": {"tested_on": "Mycobacterium smegmatis CNCM 7 326", "settings": "cited from earlier work"}, "DUCREY's bacillus": {"tested_on": "DUCREY's bacillus", "experiment": "MIC with respect to DUCREY's bacillus", "type": "cell-based, DUCREY's Haemophilus", "settings": "read-out: MIC of the primary active principle", "procedure": "as §2\nThe trials were performed on 8 wild-type strains of DUCREY's Haemophilus. The following results were recorded with respect to these strains: […]"}, "Aspergillus niger": {"tested_on": "Aspergillus niger", "experiment": "MIC on hospital strains of Aspergillus niger", "type": "cell-based", "settings": "read-out: MIC of the primary active principle", "description": "as §2\nWith the same methodology, the following results were observed on hospital strains of Aspergillus niger: […]"}, "[6]": {"tested_on": "Staphylococcus aureus Oxford strain CNCM 53 154", "experiment": "MIC, French standard NF T 72-150, AFNOR strain", "type": "cell-based", "settings": "in the presence of LiF at 1 mg/l", "procedure": "(§3) French standard NF T 72-150, March 1981, was followed by the trials carried out. The trials were performed on the strains defined by the AFNOR standard.\n(§4) The results obtained on the strains defined by the AFNOR standard for benzalkonium chloride alone and for benzalkonium chloride with the addition of 1 mg/l of sodium fluoride were already given in unpublished European Patent Application 86/402,716.4, and have been recorded again."}, "[7]": {"tested_on": "Pseudomonas aeruginosa CNCM A 22", "experiment": "MIC, French standard NF T 72-150, AFNOR strain", "type": "cell-based", "settings": "in the presence of LiF at 1 mg/l", "procedure": "as §3, §4"}, "[8]": {"tested_on": "Streptococcus faecalis CNCM 5 855", "experiment": "MIC, French standard NF T 72-150, AFNOR strain", "type": "cell-based", "settings": "in the presence of LiF at 1 mg/l", "procedure": "as §3, §4"}, "[9]": {"tested_on": "Escherichia coli CNCM 54 127", "experiment": "MIC, French standard NF T 72-150, AFNOR strain", "type": "cell-based", "settings": "in the presence of LiF at 1 mg/l", "procedure": "as §3, §4"}, "[10]": {"tested_on": "Mycobacterium smegmatis CNCM 7 326", "experiment": "MIC, French standard NF T 72-150, AFNOR strain", "type": "cell-based", "settings": "in the presence of LiF at 1 mg/l", "procedure": "as §3, §4"}, "Gardnerella vaginalis [11]": {"tested_on": "Gardnerella vaginalis", "experiment": "Contact methodology AFNOR standard I 72-151, strains surviving (second trial)", "type": "cell-based", "settings": "15-min contact, NaF or LiF 1 mg/l where added", "procedure": "The second trial carried out was performed according to the contact methodology described in AFNOR standard I 72-151, by counting the strains surviving after a 15-min active substance/microbacterial solution contact followed by a filtration on a membrane (porosity 0.22 μm).\nIn this trial, 26 wild-type strains of Gardnerella vaginalis were tested, originating from hospital sources. The starting solution contained 0.1% of benzalkonium chloride, and was then diluted to 10^-1, 10^-2, 10^-3 and 10^-4. The results are summarized in the table below, which gives the total number of strains surviving (out of the 26 tested) in terms of the dilution."}, "Chlamydia trachomatis": {"tested_on": "Chlamydia trachomatis", "experiment": "MIC on Chlamydia trachomatis strains", "type": "cell-based", "settings": "listed test strain, read-out: MIC of benzalkonium chloride", "procedure": "The test was performed on 12 strains of Chlamydia trachomatis originating from hospital sources, in particular from cases of urethritis. All the trials were performed in duplicate, and the results compared with those for a listed control strain.\nThe MIC corresponds to the concentration of benzalkonium chloride at and above which the average number of colonies in Petri dishes containing the active substance is less than one tenth of the average number of colonies in Petri dishes without active substance."}, "[12]": {"settings": "in the presence of LiF at 0.96 mg/l"}, "[13]": {"settings": "in the presence of NaF at 1 mg/l"}}, "note": "Read-outs that look alike come from different tables or passages of the source.", "data": [{"smiles": "CCCCCCCCCCCCCC[N+](C)(C)Cc1ccccc1.[Cl-]", "note": "[benzalkonium chloride, myristyldimethylbenzylammonium chloride]", "values": [{"measurement": "MIC", "setting": "Trichomonas vaginalis; alone", "result": 25, "unit": "µg/mL"}, {"measurement": "MIC", "setting": "Trichomonas vaginalis; in the presence of LiF", "result": 6.25, "unit": "µg/mL"}, {"measurement": "number of strains inhibited out of the 15 tested", "setting": "Trichomonas vaginalis; benzalkonium chloride 1.56 mg/l, LiF 1 mg/l where added", "result": 1}, {"measurement": "number of strains inhibited out of the 15 tested", "setting": "Trichomonas vaginalis; benzalkonium chloride 3.125 mg/l, LiF 1 mg/l where added", "result": 3}, {"measurement": "number of strains inhibited out of the 15 tested", "setting": "Trichomonas vaginalis; benzalkonium chloride 6.25 mg/l, LiF 1 mg/l where added", "result": 9}, {"measurement": "number of strains inhibited out of the 15 tested", "setting": "Trichomonas vaginalis; benzalkonium chloride 12.5 mg/l", "result": 13}, {"measurement": "number of strains inhibited out of the 15 tested", "setting": "Trichomonas vaginalis; benzalkonium chloride 25 mg/l", "result": 15}, {"measurement": "MIC", "setting": "Candida albicans; alone", "result": 50, "unit": "µg/mL"}, {"measurement": "MIC", "setting": "Candida albicans; in the presence of LiF at 0.96 mg/l and of KATHON CG preservative at 0.234/mgl", "result": 2, "unit": "µg/mL"}, {"measurement": "MIC", "setting": "Candida albicans; [12]", "result": 135, "unit": "µg/mL"}, {"measurement": "MBC", "setting": "Gardnerella vaginalis [1]; alone", "result": 50, "unit": "µg/mL"}, {"measurement": "MBC", "setting": "Gardnerella vaginalis [1]; in the presence of LiF", "result": 12.5, "unit": "µg/mL"}, {"measurement": "MBC", "setting": "Gardnerella vaginalis [1]; in the presence of NaF", "result": 25, "unit": "µg/mL"}, {"measurement": "number of strains inhibited out of the 32 tested", "setting": "Gardnerella vaginalis [1]; primary active principle 1.56 mg/l", "result": 0}, {"measurement": "number of strains inhibited out of the 32 tested", "setting": "Gardnerella vaginalis [1]; primary active principle 3.125 mg/l", "result": 0}, {"measurement": "number of strains inhibited out of the 32 tested", "setting": "Gardnerella vaginalis [1]; primary active principle 6.25 mg/l", "result": 1}, {"measurement": "number of strains inhibited out of the 32 tested", "setting": "Gardnerella vaginalis [1]; primary active principle 12.5 mg/l", "result": 28}, {"measurement": "number of strains inhibited out of the 32 tested", "setting": "Gardnerella vaginalis [1]; primary active principle 25 mg/l", "result": 31}, {"measurement": "number of strains inhibited out of the 32 tested", "setting": "Gardnerella vaginalis [1]; primary active principle 50 mg/l", "result": 32}, {"measurement": "MIC of benzalkonium chloride", "setting": "spermatozoa [2]; alone", "result": 0.006, "unit": "%"}, {"measurement": "MIC of benzalkonium chloride", "setting": "spermatozoa [2]; with 1 ml solution containing 0.0001% F^- anions", "result": 0.002, "unit": "%"}, {"measurement": "MIC of benzalkonium chloride", "setting": "[3]; alone", "result": 4, "unit": "µg/mL"}, {"measurement": "MIC of benzalkonium chloride", "setting": "[3]; [13]", "result": 3.6, "unit": "µg/mL"}, {"measurement": "threshold of cytotoxic activity", "setting": "MAC COY cells", "result": 0.01, "unit": "%"}, {"measurement": "MIC of benzalkonium chloride", "setting": "spermatozoa [4]", "result": 0.0009, "unit": "%"}, {"measurement": "MIC of benzalkonium chloride", "setting": "[5]; alone", "result": 30, "unit": "µg/mL"}, {"measurement": "MIC of benzalkonium chloride", "setting": "[5]; [13]", "result": 26, "unit": "µg/mL"}, {"measurement": "MIC", "setting": "DUCREY's bacillus; in the presence of LiF (1 mg/l)", "result": 65, "unit": "µg/mL"}, {"measurement": "MIC", "setting": "DUCREY's bacillus; in the presence of NaF (1 mg/l)", "result": 85, "unit": "µg/mL"}, {"measurement": "MIC", "setting": "DUCREY's bacillus", "result": 100, "unit": "µg/mL"}, {"measurement": "MIC", "setting": "Aspergillus niger; alone", "result": 50, "unit": "µg/mL"}, {"measurement": "MIC", "setting": "Aspergillus niger; in the presence of LiF at 0.96 mg/l and of KATHON CG preservative at 0.234 mg/l", "result": 100, "unit": "µg/mL"}, {"measurement": "MIC", "setting": "Aspergillus niger; [12]", "result": 135, "unit": "µg/mL"}, {"measurement": "MIC of benzalkonium chloride", "setting": "[6]", "result": 1.1, "unit": "µg/mL"}, {"measurement": "MIC of benzalkonium chloride", "setting": "[7]", "result": 15, "unit": "µg/mL"}, {"measurement": "MIC of benzalkonium chloride", "setting": "[8]", "result": 2.8, "unit": "µg/mL"}, {"measurement": "MIC of benzalkonium chloride", "setting": "[9]", "result": 2, "unit": "µg/mL"}, {"measurement": "MIC of benzalkonium chloride", "setting": "[10]", "result": 22, "unit": "µg/mL"}, {"measurement": "total number of strains surviving (out of the 26 tested)", "setting": "Gardnerella vaginalis [11]; 0.1% solution diluted 10^-1", "result": 0}, {"measurement": "total number of strains surviving (out of the 26 tested)", "setting": "Gardnerella vaginalis [11]; 0.1% solution diluted 10^-2", "result": 18}, {"measurement": "total number of strains surviving (out of the 26 tested)", "setting": "Gardnerella vaginalis [11]; 0.1% solution diluted 10^-3", "result": 22}, {"measurement": "total number of strains surviving (out of the 26 tested)", "setting": "Gardnerella vaginalis [11]; 0.1% solution diluted 10^-4", "result": 26}, {"measurement": "MIC", "setting": "Chlamydia trachomatis; 1 mg/ml added (lithium fluoride)", "result": 13, "unit": "µg/mL"}, {"measurement": "MIC", "setting": "Chlamydia trachomatis; alone", "result": 18, "unit": "µg/mL"}]}]}
